“And” between values parts separate entries of the source, which are not always exact repeats. Equal values may be shown once.
Legend:
HR1 domain of RSV-F1 [1] = format: binding, respiratory syncytial virus; conditions: 5 μg/ml proteinase-K, one hour at 37° C.
Experimental: Proteinase-K Protection Experiments:
(§1) Mixtures were treated with 5 μg/ml proteinase-K (Sigma, St. Louis, Mo.) or an equivalent volume of buffer, vortexed and then incubated for one hour at 37° C. Phenyl methyl sulfonyl fluoride (PMSF, Boehringer Mannheim, Indianapolis, Ind.) was added to achieve a 2 mM final concentration to stop proteolytic digestion. 20 μl of each sample was removed and added to 10 μl of a sample buffer (New England Biolabs, Boston, Mass.) containing 6 w/v% Sodium Dodecyl Sulfate (DDS), DTT, 187.5 mM TRIS, 30% glycerol and bromophenol blue. The mixtures were heated for five minutes at 90° C. 15 μl of the samples were run on a 10-20% Tricine polyacrylamide gel (Novex, San Diego, Calif.), stained with Coomassie brilliant blue and destained with a 10% methanol-10% acetic acid mixture (Fisher, Norcross, Ga.).

HR1 domain of RSV-F1 [2] = target: T1, HR1 domain of RSV-F1 (Human respiratory syncytial virus A, UniProt P03420); format: binding
T1 construct: made in house
Experimental: Proteinase-K Protection Experiments:
as §1

[3] = Analytical ultracentrifugation (sedimentation equilibrium); format: physicochemical
Experimental: Analytical Ultracentrifugation:
Sedimentation equilibrium experiments were performed on a Beckman Optima XL-A analytical ultracentrifuge at 4° C. Six-channel cells (12 mm optical path length) were used with an An-60 Ti rotor operated at 13,500, 16,000, 17,000, 20,000, 21,000, 24,000, 25,000, 27,500, 30,000 and 35,000 rpm. The cell radii were scanned using 0.001 cm steps with 10 averages/scan. Data were analyzed using Beckman XLA data analysis software (version 3.01 for Windows) and Beckman-Origin software (version 3.78 for Windows). […] The partial specific volumes were held constant for all models considered.
Single data files were normalized to 270 nm absorbance values using Beer's Law. The data obtained with solutions containing the DP107-like peptides were then analyzed using a single ideal species model to determine a weight-averaged molecular weight (Mw). Diagnostic plots of Mw/Mw0 vs. rpm/rpm0 and Mw vs. radial concentration were used to test for sample homogeneity as described, e.g., by McRorie & Voelker, 1993, Self-Associating Systems in the Analytical Ultracentrifuge, Beckman Instruments, Inc., Palo Alto; and Yphantis et al., 1978, in Physical Aspects of Protein Interactions: Proceedings of the Symposium on Protein Interactions, American Chemical Society Meeting, Catsimpoolas, Ed., pp. 275-303, Elsevier, Miami Beach, Fla. When systematic residuals or a Mw higher than the monomer molecular weight indicated the presence of self-association, associative models such as monomer/trimer, monomer/tetramer and monomer/dimer/tetrarner were investigated. The suitability of a particular model (i.e., the goodness of fit) was judged by the trends observed in the residuals (Johnson & Straume, 1994, in Modern Analytical Ultracentrifugation, Schuster et al., eds., pp. 37-65, Birkhauser, Boston). Using the associative model which produced random residuals when fitting individual data files, a simultaneous, global, weighted fit of multiple data files (up to nine files with different concentrations and speeds) was performed to determine the association constant and 95% confidence intervals. To convert the resulting association constant from absorbance units to concentration units, it was assumed that the absorbance of the n-mer is n times that of the monomer.
The data obtained with DP107-like/DP178-like peptide mixtures were first analyzed with a single ideal species model. When a systematic trend in residuals coupled with the Mw not equal to a precise multimer of HR1+HR2 were obtained, and alternate fitting scheme was explored. For this approach, it was assumed that the solution contained fully associated HR1-HR2 complexes and unassociated DP107-like and DP178-like peptides. The mixtures were analyzed with a two-ideal species model, choosing one species to have a molecular weight of either 28,269 Da (corresponding to three DP107-like plus three DP178-like peptides) or […] (corresponding to four DP107-like plus four DP178-like peptides).

[4] = Circular dichroism spectroscopy (helicity, thermal stability); format: physicochemical; conditions: 10 and 50 μM
Experimental: Circular Dichroism Spectroscopy:
Circular Dichroism (CD) spectra were obtained using an AVIV Associates 62DS spectrometer equipped with a thermoelectric temperature controller. Spectra were obtained in 0.1, 0.5 and 1.0 cm quartz cells at 1° C. with 0.5 nm steps from 200 to 260 nm, 1.5 nm bandwidth and an averaging time of 4 sec/step. After the cell/buffer blank was subtracted, spectra were smoothed using a third-order least-squares polynomial fit with a conservative (5-10 point) window size to give random residuals. Mixing experiments were performed by comparing the spectrum of the two peptides mixed together in a 0.1 cm path length cell at the desired concentrations (referred to herein as the “experimental” spectrum) to the sum of the individual spectra of the peptides, each solution in a 0.1 cm path length cell (referred to herein as the “model spectrum” for no peptide interaction or “model for no interaction”).
Raw ellipticity values were converted to mean residue ellipticity using standard methods (Cantor & Schimmel, 1980, Biophysical Chemistry Part II: Techniques for the Study of Biological Structure and Function, W.H. Freeman and Co., New York). Conversions for the mixing experiment spectra were performed using a peptide length corresponding to the average of the two peptides. Thermal stability measurements were performed in 2° C. steps, with 1 minute equilibration times. Spectra were smoothed, converted to mean residue ellipticity, and the corresponding value at 222 nm noted from each spectrum. Percent helicity values were calculated using single value decomposition with a basis set of 33 protein spectra (Johnson & Curtis, 1990, Proteins: Structure, Function and Genetics 7:205-214).

[5] = target: T2, MBP fusion protein containing the ectodomain of the HIV-1 fusion protein gp41 (M41Δ178) (Human immunodeficiency virus type 1 group M subtype B, UniProt P03377); conditions: control for non-specific binding
T2 construct: made by cloning the DNA fragment corresponding to gp41 amino acids 540-642 into the Xmn I site of pMal-p2; made in house
Experimental: as §1

[6] = target: T3, DP107-like domain of the RSV F1-protein (MF5.1 fusion protein) (Human respiratory syncytial virus A, UniProt P03420); test: biochemical; format: binding; conditions: binding affinity for the DP107-like domain of RSV F1 protein
T3 construct: made in house
Experimental: After incubation and washing, unbound Fab-d is removed from the plates and bound Fab-d is quantitated. A no-inhibitor control should also be conducted.
Such an assay takes advantage of accepted radioligand and receptor binding principles. (See, for example, Yamamura, H. I. et al., 1985, “Neurotransmitter Receptor Binding”, 2nd ed., Raven Press, NY.) As above, M41Δ78 is immobilized onto a solid support such as a microtiter well. […] Specific binding to M41Δ78 is defined as the difference of the binding of the labeled DP178 preparation in the microtiter wells (totals) and the binding in identical wells containing, in addition, excess unlabeled DP178 (nonspecifics).
Specifically, the DNA sequence corresponding amino acid residues 142-302 of the RSV F1 protein was amplified by PCR and cloned into the Xmn I site of the expression vector pMal-p2 (New England Biolab) to give MF5.1. These amino acid residues correspond to the extracellular domain of the RSV F1 protein including its DP107 region but excluding the DP178 region.
Cell fusion assays were performed with each of the peptides as described in Section 17 above.

T3 sequence (P03420 142-302): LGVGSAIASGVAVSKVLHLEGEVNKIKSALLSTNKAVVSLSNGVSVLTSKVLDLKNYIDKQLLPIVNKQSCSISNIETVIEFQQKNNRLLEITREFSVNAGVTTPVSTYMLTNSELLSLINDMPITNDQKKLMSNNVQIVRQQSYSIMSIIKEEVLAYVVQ
T2 sequence (P03377 540-642, stated change not applied): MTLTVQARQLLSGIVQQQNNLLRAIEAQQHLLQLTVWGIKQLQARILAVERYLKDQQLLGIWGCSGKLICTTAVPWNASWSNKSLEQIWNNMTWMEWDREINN
T1 sequence (P03420 142-302): as the sequence (P03420 142-302) above

**Q.** For `CC[C@H](C)[C@H](NC(=O)[C@H](Cc1ccccc1)NC(=O)[C@H](C)NC(=O)[C@H](CC(C)C)NC(=O)[C@H](CO)NC(=O)[C@H](CCC(N)=O)NC(=O)[C@H](CC(N)=O)NC(=O)[C@@H](NC(=O)[C@H](CCCCN)NC(=O)[C@H](CCC(=O)O)NC(=O)[C@H](CC(N)=O)NC(=O)[C@@H](NC(=O)[C@H](CCC(N)=O)NC(=O)[C@H](CO)NC(=O)[C@@H](NC(=O)[C@H](CO)NC(=O)[C@H](C)NC(=O)[C@H](CC(=O)O)NC(=O)[C@H](Cc1ccccc1)NC(=O)[C@H](CCC(=O)O)NC(=O)[C@H](CC(=O)O)NC(=O)[C@H](CO)NC(=O)[C@@H]1CCCN1C(=O)[C@H](Cc1ccccc1)NC(=O)[C@@H](NC(C)=O)C(C)C)[C@@H](C)CC)C(C)C)[C@@H](C)CC)C(=O)N[C@@H](CCCNC(=N)N)C(=O)N[C@@H](CCCCN)C(=O)N[C@@H](CO)C(=O)N[C@@H](CC(=O)O)C(=O)N[C@@H](CCC(=O)O)C(=O)N[C@@H](CC(C)C)C(=O)N[C@@H](CC(C)C)C(=O)N[C@@H](Cc1c[nH]cn1)C(=O)N[C@@H](CC(N)=O)C(=O)N[C@H](C(N)=O)C(C)C` [Peptide T112], which “proteinase-K digestion of the peptide alone” value (HR1 domain of RSV-F1 [1]) is on record?
**A.** The value was “digest the peptide entiretly”.

**Q.** What about the “binding to the HR1 domain of RSV-F1 and protection from proteolytic digestion” value (HR1 domain of RSV-F1 [2]) of the same molecule?
**A.** The value was “binds to the HR1 domain of RSV-F1 and thereby protects the domain from proteolytic digestion”.

**Q.** What about the “oligomerization state in solution (in words)” value [3] of the same molecule?
**A.** The value was “behaves as a monomer”.

**Q.** What about the Mw value ([3]; 50 μM, 25,000, 30,000 and 35,000 rpm) of the same molecule?
**A.** Its Mw value is 3,984 Da.

**Q.** What about the “thermal stability (CD melting curves, in words)” value [4] of the same molecule?
**A.** Its value is “little thermal stability”.

**Q.** And the helicity ([4]; PBS solution)?
**A.** Its helicity is “less than 10%”.

**Q.** What about the “binding to MBP fusion protein containing the HIV-1 gp41 ectodomain” value [5] of the same molecule?
**A.** Its value is “does not bind”.

**Q.** And the Kd [6]?
**A.** The Kd was 2 nM and 1 nM.

From patent US6623741B1, “Methods and compositions for inhibition of membrane fusion-associated events including RSV transmission” (Trimeris, Inc., priority 2000, dated 2003)
